Measured values published in EP0155872A1, “Process for reducing the lignin content of plants, and compositions for putting it into use” (priority 1984, dated 1985).

Columns and labels:
[1] = test system: fractions de xylème de peuplier; test: Incorporation of cinnamic acid (14C3) into lignins by isolated poplar xylem fractions; format: cell-based; conditions: for Taux de radio-activité incorporé dans les lignines (%) / Radioactivité absorbée (µCi/essai) / Radioactivité incorporée dans les lignines (µCi/essai): 30 h; for Radioactivité absorbée (µCi/essai) / Radioactivité incorporée dans les lignines (µCi/essai): mean of 3; for inhibition at 200 µM / inhibition at 1000 µM: relative to % incorporated in the control = 100
Protocol: Les tissus de xylème isolés (300 mg par essai) sont mis en suspension dans des fioles d'erlenmeyer (25ml), bouchées par du coton cardé contenant : • - du tampon Tris/HCl, O,lM, pH 7,5 (qsp Sml) maintenant le pH entre 7 et 8, • - du Dextran T40 (25 g/1) utilisé comme agent osmotique, ne constituant pas une source de carbone pour la cellule végétale, • - du mercaptoéthanol (O,lmM), antioxydant qui empêche un brunissement très rapide des tissus, • - de l'éther monométhylique de l'éthylène glycol (EMMEG) (50 µl) ou des inhibiteurs solubilisés dans ce polyol (5^0 µ1), • - de l'acide cinnamique (^14C3) (2,5 µCi).
Les fioles sont palcées à 26°C, sous agitation orbitale (agitateur New Brunswick modèle G 10,100 rpm) et sous un éclairement de 4000 lux pendant 30 h. La radioactivité incorporée par les lignines est alors estimée à partir de "poudre alcool-benzène" obtenu par extraction à l'alcool-benzène des fractions tissulaires lyophilisées et réduites en poudre.
Afin de mesurer l'absorption de l'acide cinnamique par les fractions tissulaires et de corriger d'éventuelles différences d'absorption selon les essais, une fraction aliquote du milieu d'incubation (50 µl) est prélevée à différents temps et la radioactivité estimée au compteur à scintillation liquide.
La mesure de la radioactivité libérée sous forme de ^14CO2 après combustion totale des "poudres alcool-benzène" révèle qu'en présence du OHPAS ou du NH2PAS, on observe une baisse de la radioactivité retrouvée dans les lignines. Ainsi, ces inhibiteurs entraînent à la concentration de lmM, une inhibition de 40 à 70% de la synthèse des lignines radioactives. Ces résultats sont rapportés dans le tableau 3 ci-après : […]

CCR = test: Inhibition of cinnamoyl:CoA reductase (CCR); format: biochemical
tiges de peuplier = test: Incorporation of cinnamic acid (14C3) into lignins in cut poplar stems; format: in vivo; conditions: 96 heures de métabolisation, read-out: inhibition de l'incorporation de l'acide cinnamique dans le polymère
From the text: Afin de vérifier chez des tiges de peuplier l'action de l'OHPAS et du NH2PAS, on réalise des incorporations d'acide cinnamique (5 yCi) à des rameaux comportant 12 entrenoeuds selon la technique de la tige sectionnée décrite par BOUDET,dans C.R. Acad. Sci.Paris, p. 1966-1968, 269, 1969. La radioactivité des lignines est mesurée après 96 heures de métabolisation.
Lorsque la métabolisation est effectuée en présence du OHPAS et du NH2PAS, on observe une diminution de la radioactivité incorporée dans les lignines. Ainsi, l'OHPAS, à la concentration de 160 µM inhibe de 46% l'incorporation de l'acide cinnamique dans le polymère. Bien que les concentrations en inhibiteurs soient plus faibles, l'effet des inhibiteurs apparaîtsemanifester de façon plus nette-pour une métabolisation de plus longue durée.

CAD = biological target: T1, CAD (Populus deltoides, UniProt P31657); test: Specificity of the inhibitors among the enzymes tested; format: biochemical
T1 sequence (P31657 1-357): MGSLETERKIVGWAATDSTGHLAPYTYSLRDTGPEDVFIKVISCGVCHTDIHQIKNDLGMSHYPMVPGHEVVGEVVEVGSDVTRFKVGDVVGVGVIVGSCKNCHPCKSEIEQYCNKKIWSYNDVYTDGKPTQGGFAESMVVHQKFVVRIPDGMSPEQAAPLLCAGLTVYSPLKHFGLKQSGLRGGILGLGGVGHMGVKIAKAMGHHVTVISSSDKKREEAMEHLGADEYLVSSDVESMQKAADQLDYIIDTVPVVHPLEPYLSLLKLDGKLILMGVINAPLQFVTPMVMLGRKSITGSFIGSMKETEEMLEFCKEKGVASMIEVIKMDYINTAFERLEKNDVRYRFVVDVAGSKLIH

Row | spécificité en regard des enzymes testées (CAD) | Compound | Taux de radio-activité incorporé dans les lignines (%) ([1]; 0,2mM) | Radioactivité absorbée (µCi/essai) ([1]; 0,2mM) | Radioactivité incorporée dans les lignines (µCi/essai) ([1]; 0,2mM) | inhibition at 200 µM ([1]; 0,2mM) [%] | Taux de radio-activité incorporé dans les lignines (%) ([1]; 1mM) | Radioactivité absorbée (µCi/essai) ([1]; 1mM) | Radioactivité incorporée dans les lignines (µCi/essai) ([1]; 1mM) | inhibition at 1000 µM ([1]; 1mM) [%] | inhibition de la CCR (CCR) | inhibition at 160 µM (tiges de peuplier) [%]
1 | – | CC(C)(C)OC(=O)C[S+]([O-])Nc1ccccc1N (stereo not shown) [composé 5, N-(o-Amino phényl)Sulfinamoyl Acétate de tertiobutyle] | 32 | 0,80 µCi/essai | 0,26 µCi/essai | 4 | 20 | 0,80 µCi/essai | 0,16 µCi/essai | 40 | inhibe également la CCR | –
2 | spécificité stricte vis-à-vis de la CAD | CC(C)(C)OC(=O)C[S+]([O-])Nc1ccccc1O (stereo not shown) [composé 2, N-(o -hydroxy phényl)sulfinamoyl acétate de tertiobutyle] | 24 | 0,75 µCi/essai | 0,18 µCi/essai | 17 | 10 | 0,75 µCi/essai | 0,075 µCi/essai | 70 | – | 46
